Experimental data as given in US20160220710A1, “COMPOSITIONS AND METHODS FOR DELIVERING PHARMACEUTICAL AGENTS” (THE REGENTS OF THE UNIVERSITY OF MICHIGAN, priority 2015, published 2016).

Experiments:
RAW 264.7 cells = assay: MitoTracker Red live cell staining (mitochondrial membrane potential); format: cell-based, murine; settings: 10 μM
Description: Cells were cultured with CFZ or CLDI media for 24 h in chamber slides (Lab Tek) and stained with 150 nM of MitoTracker Red CMXRos (MTR, Life Technologies) in fresh media for 45 min, and then NucBlue Live Cell Stain (Life Technologies) was applied for 10 min for nuclear staining. After incubation, extracellular MTR and NucBlue were washed twice with DPBS and the cells were visualized on a Nikon Eclipse Ti fluorescence microscope (Japan) using Texas Red (Mitotracker) and DAPI (NucBlue) filters. Real-time live cell images were captured every 10 sec for 30 min with the same microscope and video was created using the Nikon Elements software. For confocal imaging of intracellular CLDIs, FM 1-43 (Life Technologies) was used at 3.5 μM (15 min at 37° C.) for membrane staining followed by NucBlue (10 min). After washing with DPBS, cells were visualized using laser-scanning confocal microscopy (Olympus Fluoview 500) fitted with argon (FITC) and HeNe Red lasers (Cy5). Images were taken along the z-axis with a 60× objective at 0.25 μm intervals and the composite Z-stack images were created using the Nikon Elements software.

Akt = assay: Western blot of Akt phosphorylated at Ser473; format: cell-based, murine; settings: RAW 264.7 cells, 24 h
Description: (§1) The murine macrophage cell line RAW 264.7 was purchased from ATCC (Manassas, Va.) and maintained in DMEM (Life Technologies, Carlsbad, Calif.) supplemented with 10% FBS. Soluble CFZ or isolated CLDIs were added at various concentrations in DMEM with 5% FBS to 6-well plates containing 4×10^5 cells/well and incubated (24 h at 37° C. and 5% CO2). Culture supernatants were harvested at 24 h, centrifuged (1500×g for 5 min), and stored (−20° C.) in frozen aliquots prior to analysis. For experiments involving TLR stimulation, cells were washed twice with pre-warmed DPBS to remove extracellular, non-phagocytosed CLDIs or CFZ, and then the cells were serum-starved for 18 h in DMEM. Supernatants were collected from unstimulated cells and cells stimulated with 200 ng/ml Pam3 or 1 μg/ml LPS in DMEM.

NF-κB (p65) = assay: p65 nuclear translocation immunofluorescence; format: cell-based, murine
Description: as §1, with “Supernatants were collected from unstimulated cells and cells stimulated with 200 ng/ml Pam3 or 1 μg/ml LPS in DMEM.” left out
Brightfield and fluorescence (DAPI, FITC, Texas Red and Cy5) images were captured using the Nikon Eclipse Ti (Japan) inverted microscope equipped with a Nikon Digital Sight DS-Fi2 camera (Japan) for brightfield and Photometrics Coolsnap Myo camera (Tucson, Ariz.) for fluorescence. […] For determining the ratio of nucleus-to-cytoplasm p65 fluorescence, ImageJ was used following previously described methods (Fuseler, et al., Microsc. Microanal. 2006, 12, 269-276; Noursadeghi, M. et al., J. Immunol. Methods 2008, 329, 194-200). The average volume of CLDIs was calculated using the area, Feret max and min values of each CLDI acquired from ImageJ. […]

[1] = Measurement of CFZ in tissues; format: in vivo, mice
Description: Mice (4 week old, male C57Bl6) were purchased from the Jackson Laboratory (Bar Harbor, Me.) and acclimatized for 1 week in a specific-pathogen-free animal facility. Animal care was provided by the University of Michigan's Unit for Laboratory Animal Medicine (ULAM), and the experimental protocol was approved by the Committee on Use and Care of Animals. Clofazimine (CFZ) (C8895; Sigma-Aldrich, St. Louis, Mo.) was dissolved in sesame oil (Roland, China, or Shirakiku, Japan) to achieve a concentration of 3 mg/ml, which was mixed with Powdered Lab Diet 5001 (PMI International, Inc., St. Louis, Mo.) to produce a 0.03% drug to powdered feed (Baik et al., 2013, supra). […]
CFZ mass was measured as previously reported (Baik et al., 2012, supra; Venkatesan, et al., Arzneim. Forsch. 2007, 57, 472-474). […] CFZ mass was spectrophotometrically determined in methanol (λ=490 nm) and the concentration was calculated using a standard curve generated by spiking extracted tissue of the control (vehicle-only treated) mice tissue with known amounts of drug. The tissue-to-fat partition ratios were computed based on mass of drug in the various tissues relative to mass of drug in total body fat (units: dimensionless; calculated as [mg CFZ/g tissue]/[mg CFZ/g fat]). […] CFZ mass was measured in relation to the measured weight of the tissue or plasma volume.

IL-1RA, TNFα, IL-1β = assay: Serum cytokines of CFZ-treated mice; format: in vivo
Description: Clofazimine (CFZ, Sigma-Aldrich, C8895) was prepared in sesame oil (Shirakiku, Japan, or Roland, China) and Powdered Lab Diet 5001 (PMI International, Inc., St. Louis, Mo.) and orally administrated to Wild-type (WT) C57BL/6 mice or IL-1RA^−/− (4-5 week old, Jackson Laboratory, Bar Harbor, Me.) for up to 8 weeks ad libitum as previously described (Baik et al., 2013, supra; Baik et al., 2011, supra). Control mice were fed with the same diet without CFZ. The animal protocol was approved by the University of Michigan's Animal Care and Use Committee in accordance with the National Institutes of Health guidelines (UCUCA #PRO0005111).
Mouse Bronchoalveolar Lavage (BAL) Harvest and Isolation of Alveolar Macrophages, Immunohistochemistry and Imaging, SDS-PAGE and Western Blot, Cytokine Measurements

CC(C)/N=c1\cc2n(-c3ccc(Cl)cc3)c3ccccc3nc-2cc1Nc1ccc(Cl)cc1 [CFZ, 3-(p-chloroanilino)-10-(p-chlorophenyl)-2, 10-dihydro-2-isopropyliminophenazine]
mitochondrial membrane potential (Mitotracker Red staining) (RAW 264.7 cells): diffuse cytoplasmic MTR staining, indicative of mitochondrial membrane depolarization
nuclear MTR signal vs untreated cells (RAW 264.7 cells): 4 fold
phosphorylation of Akt (Akt): minimally affected phosphorylation of Akt
p65 nuclear translocation (NF-κB (p65); LPS stimulation, 3 h, 4 μM soluble CFZ or 40 μM CLDI): reduced p65 translocation in response to LPS
p65 nuclear translocation (NF-κB (p65); naïve, no stimulation): did not induce nuclear translocation of p65
CFZ mass retained in spleen ([1]; after the eight week washout period): exceeded its combined mass retained in the other organs
Kp ([1]; male, C57Bl6, mouse, adipose tissue / serum, 10 mg/kg per day, starting at three weeks of oral administration, read-out: CFZ concentration in adipose tissue relative to serum): > 10000
serum IL-1RA levels (IL-1RA, TNFα, IL-1β; 8 weeks): increase in serum IL-1RA levels
TNFα or IL-1β in the serum (IL-1RA, TNFα, IL-1β; all conditions): not possible to detect
